O=C1NC(O)=C(C(=O)c2ccccc2)C(c2ccccc2)N1 (stereo not shown) [Compound 7, 5-benzoyl-6-hydroxy-4-phenyl-3,4-dihydropyrimidin-2(1H)-one]
melting point: 267 °C
